System: cardiac structural and hypertrophy-associated genes (Col1, Col3, ANP, BNP, SERCA2, alpha- and beta-MHC)
Assay: Quantitative realtime PCR of cardiac structural and hypertrophy-associated genes in left ventricular tissue after TAC (Example 7)
Type: in vivo, mice
Conditions: mRNA, 21 days after TAC
Protocol: In parallel samples from the experiment described in Example 4, the expression of a group of cardiac structural and hypertrophy-associated genes were quantified. Total RNA was extracted from left ventricular tissue using TRIzol Reagent (Invitrogen, Carlsbad, Calif.). cDNA was amplified using TaqMan Universal PCR master mix reagent (Applied Biosystems, Foster City, Calif.) under the following conditions: 2 min at 50° C., 10 min at 95° C., 40 cycles: 15 s at 95° C. and 1 min at 60° C. in an ABI 7900HT thermocycler. mRNA expression levels were normalized to those of the internal reference 18S rRNA. All samples were run in duplicates. The following primer sets were used: ANP, BNP, SERCA, MHC, and 18S. Data was analyzed using software RQ manager 1.2 from Applied Biosystems.

Nc1ccccc1NC(=O)CCCCCC(=O)Nc1cccc(Br)c1 [8MI]
markedly attenuated: stress-induced expression of B-type natriuretic peptide (BNP) | stress-induced expression of Collagen Type 1 (Col1) | stress-induced expression of Collagen Type 3 (Col3) | stress-induced expression of SERCA2 | stress-induced expression of alpha-myosin heavy chain | stress-induced expression of atrial natriuretic peptide (ANP) | stress-induced expression of beta-myosin heavy chain

Source: patent US20180028477A1, “TREATMENT OF CARDIAC REMODELING AND OTHER HEART CONDITIONS” (C & C BIOPHARMA, LLC, priority 2013, published 2018)
